# Target: P2X7 (Homo sapiens (Human), UniProt Q99572)
# Assay: P2X7 antagonism in human peripheral blood mononuclear cells (PBMCs), IL-1β release
# Format: cell-based
# Details: P2X7; Table 3 (additional runs); 10 μM compound; read-out: PBMC 10 μM (% control)
# Procedure: P2X7 Antagonism in Human Peripheral Blood Mononuclear Cells (PBMCs) and Human Whole Blood.
# Human blood was collected using a blood donor program. PBMCs were isolated from blood using a Ficoll density gradient technique. Briefly, blood was laid on Ficoll solution and centrifuged at RT for 20 minutes at 2000 rpm. The buffy layer (between red blood cells and plasma) was carefully collected by aspiration, washed with PBS and centrifuged again at 1500 rpm for 15 minutes. The resulting cell pellet was washed and plated on 96 well-plates for experiments. For the Human Whole Blood experiments, 150 μl of human blood was platted on 96 well-plates. Lipopolysaccharide (LPS) (30 ng/ml) was added to each well and incubated for 1 hour. Test compounds were then added and incubated for 30 minutes. The P2X7 agonist, 2′(3′)-O-(4-benzoylbenzoyl) adenosine 5′-triphosphate (Bz-ATP) was then added at a final concentration of 0.5 mM (PBMC) or 1 mM (blood). Cells were incubated for an additional 1.5 hours. At that point, supernatant was collected and stored for IL-1β assay using manufacturer's protocol for enzyme-linked immunosorbent assay (ELISA). Data was expressed as percent control, where control is defined as the difference in IL-1β release in LPS+Bz-ATP samples and LPS only samples. Data was plotted as response (% control) versus concentration to generate IC50 values. […] Data are analyzed and graphed on Graphpad Prism 5. For analysis, each concentration point is averaged from triplicate values and the averaged values are plotted on Graphpad Prism.
# P2X7, sequence (Q99572 whole entry): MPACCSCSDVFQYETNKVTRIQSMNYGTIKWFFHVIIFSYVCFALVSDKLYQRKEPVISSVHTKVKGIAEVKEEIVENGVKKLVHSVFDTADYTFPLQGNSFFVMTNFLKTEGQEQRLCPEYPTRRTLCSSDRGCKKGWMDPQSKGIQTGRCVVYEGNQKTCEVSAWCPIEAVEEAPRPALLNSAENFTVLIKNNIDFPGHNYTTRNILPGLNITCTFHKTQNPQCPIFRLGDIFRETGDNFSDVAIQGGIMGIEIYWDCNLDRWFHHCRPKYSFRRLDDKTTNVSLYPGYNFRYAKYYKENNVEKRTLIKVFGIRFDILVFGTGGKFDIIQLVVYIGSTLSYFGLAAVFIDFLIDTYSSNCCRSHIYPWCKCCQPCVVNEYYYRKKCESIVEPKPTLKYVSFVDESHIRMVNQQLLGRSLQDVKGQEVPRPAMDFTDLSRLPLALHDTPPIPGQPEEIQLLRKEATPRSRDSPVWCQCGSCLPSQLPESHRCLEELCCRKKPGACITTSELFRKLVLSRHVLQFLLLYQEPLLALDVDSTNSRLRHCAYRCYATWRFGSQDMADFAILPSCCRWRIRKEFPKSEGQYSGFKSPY
row,SMILES,remaining activity at 10 µM [%]
1,"C[C@H]1Cn2c(nnc2-c2cnn(C)c2)C(=O)N1Cc1cccc(C(F)(F)F)c1Cl [Example 24, (6S)-7-[2-Chloro-3-(trifluoromethyl)benzyl]-6-methyl-3-(1-methyl-1H-pyrazol-4-yl)-6,7-dihydro[1,2,4]triazolo[4,3-a]pyrazin-8(5H)-one]",-0.7
2,"C[C@H]1Cn2c(nnc2-c2cn[nH]c2)C(=O)N1Cc1cccc(C(F)(F)F)c1Cl [Example 25, (6S)-7-[2-Chloro-3-(trifluoromethyl)benzyl]-6-methyl-3-(1H-pyrazol-4-yl)-6,7-dihydro[1,2,4]triazolo[4,3-a]pyrazin-8(5H)-one]",2.8
3,"Cc1cc(-c2nnc3n2C[C@H](C)N(Cc2cccc(C(F)(F)F)c2Cl)C3=O)n[nH]1 [Example 26, (6S)-7-[2-Chloro-3-(trifluoromethyl)benzyl]-6-methyl-3-(5-methyl-1H-pyrazol-3-yl)-6,7-dihydro[1,2,4]triazolo[4,3-a]pyrazin-8(5H)-one]",-3.7
4,"C[C@H]1Cn2c(nnc2-c2ncccn2)C(=O)N1Cc1cccc(C(F)(F)F)c1Cl [Example 27, (6S)-7-[2-Chloro-3-(trifluoromethyl)benzyl]-6-methyl-3-pyrimidin-2-yl-6,7-dihydro[1,2,4]triazolo[4,3-a]pyrazin-8(5H)-one]",-0.7
5,"C[C@H]1Cn2c(nnc2-c2cc[nH]n2)C(=O)N1Cc1cccc(C(F)(F)F)c1Cl [Example 28, (6S)-7-[2-Chloro-3-(trifluoromethyl)benzyl]-6-methyl-3-(1H-pyrazol-3-yl)-6,7-dihydro[1,2,4]triazolo[4,3-a]pyrazin-8(5H)-one]",-11.7
6,"C[C@H]1Cn2c(nnc2-c2cccnc2)C(=O)N1Cc1cccc(C(F)(F)F)c1Cl [Example 29, (6S)-7-[2-Chloro-3-(trifluoromethyl)benzyl]-6-methyl-3-pyridin-3-yl-6,7-dihydro[1,2,4]triazolo[4,3-a]pyrazin-8(5H)-one]",-3.4
7,"C[C@H]1Cn2c(nnc2-c2ccc(F)cn2)C(=O)N1Cc1cccc(C(F)(F)F)c1Cl [Example 30, (6S)-7-[2-Chloro-3-(trifluoromethyl)benzyl]-3-(5-fluoropyridin-2-yl)-6-methyl-6,7-dihydro[1,2,4]triazolo[4,3-a]pyrazin-8(5H)-one]",3.4
8,"C[C@H]1Cn2c(nnc2-c2nccs2)C(=O)N1Cc1cccc(C(F)(F)F)c1Cl [Example 31, (6S)-7-[2-Chloro-3-(trifluoromethyl)benzyl]-6-methyl-3-(1,3-thiazol-2-yl)-6,7-dihydro[1,2,4]triazolo[4,3-a]pyrazin-8(5H)-one]",3
9,"C[C@H]1Cn2c(nnc2-c2cscn2)C(=O)N1Cc1cccc(C(F)(F)F)c1Cl [Example 32, (6S)-7-[2-Chloro-3-(trifluoromethyl)benzyl]-6-methyl-3-(1,3-thiazol-4-yl)-6,7-dihydro[1,2,4]triazolo[4,3-a]pyrazin-8(5H)-one]",3.8
10,"C[C@H]1Cn2c(nnc2-c2ccncn2)C(=O)N1Cc1cccc(C(F)(F)F)c1Cl [Example 33, (6S)-7-[2-Chloro-3-(trifluoromethyl)benzyl]-6-methyl-3-pyrimidin-4-yl-6,7-dihydro[1,2,4]triazolo[4,3-a]pyrazin-8(5H)-one]",0.9
11,"C[C@H]1Cn2c(nnc2-c2ncc(F)cn2)C(=O)N1Cc1cccc(C(F)(F)F)c1Cl [Example 34, (6S)-7-[2-Chloro-3-(trifluoromethyl)benzyl]-3-(5-fluoropyrimidin-2-v1)-6-methyl-6,7-dihydro[1,2,4]triazolo[4,3-a]pyrazin-8(5H)-one]",0.8
12,"COc1ccnc(-c2nnc3n2C[C@H](C)N(Cc2cccc(C(F)(F)F)c2Cl)C3=O)c1 [Example 35, (6S)-7-[2-Chloro-3-(trifluoromethyl)benzyl]-3-(4-methoxypyridin-2-yl)-6-methyl-6,7-dihydro[1,2,4]triazolo[4,3-a]pyrazin-8(5H)-one]",-3.1
13,"Cc1nc(-c2nnc3n2C[C@H](C)N(Cc2cccc(C(F)(F)F)c2Cl)C3=O)cs1 [Example 36, (6S)-7-[2-Chloro-3-(trifluoromethyl)benzyl]-6-methyl-3-(2-methyl-1,3-thiazol-4-yl)-6,7-dihydro[1,2,4]triazolo[4,3-a]pyrazin-8(5H)-one]",2.8
14,"C[C@H]1Cn2c(nnc2-c2cncs2)C(=O)N1Cc1cccc(C(F)(F)F)c1Cl [Example 37, (6S)-7-[2-Chloro-3-(trifluoromethyl)benzyl]-6-methyl-3-(1,3-thiazol-5-yl)-6,7-dihydro[1,2,4]triazolo[4,3-a]pyrazin-8(5H)-one]",9
15,"C[C@H]1Cn2c(nnc2-c2csc(C(F)(F)F)n2)C(=O)N1Cc1cccc(C(F)(F)F)c1Cl [Example 38, (6S)-7-[2-Chloro-3-(trifluoromethyl)benzyl]-6-methyl-3-[2-(trifluoromethyl)-1,3-thiazol-4-yl]-6,7-dihydro[1,2,4]triazolo[4,3-a]pyrazin-8(5H)-one]",19.8
16,"Cc1nc(C)c(-c2nnc3n2C[C@H](C)N(Cc2cccc(C(F)(F)F)c2Cl)C3=O)s1 [Example 39, (6S)-7-[2-Chloro-3-(trifluoromethyl)benzyl]-3-(2,4-dimethyl-1,3-thiazol-5-yl)-6-methyl-6,7-dihydro[1,2,4]triazolo[4,3-a]pyrazin-8(5H)-one]",20.3
17,"Cc1ncsc1-c1nnc2n1C[C@H](C)N(Cc1cccc(C(F)(F)F)c1Cl)C2=O [Example 40, (6S)-7-[2-Chloro-3-(trifluoromethyl)benzyl]-6-methyl-3-(4-methyl-1,3-thiazol-5-yl)-6,7-dihydro[1,2,4]triazolo[4,3-a]pyrazin-8(5H)-one]",22.3
18,"C[C@H]1Cn2c(nnc2-c2ccon2)C(=O)N1Cc1cccc(C(F)(F)F)c1Cl [Example 41, (6S)-7-[2-Chloro-3-(trifluoromethyl)benzyl]-3-isoxazol-3-yl-6-methyl-6,7-dihydro[1,2,4]triazolo[4,3-a]pyrazin-8(5H)-one]",35
19,"C[C@H]1Cn2c(nnc2-c2ncc(Br)cn2)C(=O)N1Cc1cccc(C(F)(F)F)c1Cl [Example 42, (6S)-3-(5-Bromopyrimidin-2-yl)-7-[2-chloro-3-(trifluoromethyl)benzyl]-6-methyl-6,7-dihydro[1,2,4]triazolo[4,3-a]pyrazin-8(5H)-one]",37.4
20,"C[C@H]1Cn2c(nnc2-c2cccnn2)C(=O)N1Cc1cccc(C(F)(F)F)c1Cl [Example 44, (6S)-7-[2-Chloro-3-(trifluoromethyl)benzyl]-6-methyl-3-pyridazin-3-yl-6,7-dihydro[1,2,4]triazolo[4,3-a]pyrazin-8(5H)-one]",26
21,"C[C@H]1Cn2c(nnc2-c2cncc(F)c2)C(=O)N1Cc1cccc(C(F)(F)F)c1Cl [Example 45, (6S)-7-[2-Chloro-3-(trifluoromethyl)benzyl]-3-(5-fluoropyridin-3-yl)-6-methyl-6,7-dihydro[1,2,4]triazolo[4,3-a]pyrazin-8(5H)-one]",20.1
22,"Cc1cccc(-c2nnc3n2C[C@H](C)N(Cc2cccc(C(F)(F)F)c2Cl)C3=O)n1 [Example 46, (6S)-7-[2-Chloro-3-(trifluoromethyl)benzyl]-6-methyl-3-(6-methylpyridin-2-yl)-6,7-dihydro[1,2,4]triazolo[4,3-a]pyrazin-8(5H)-one]",2.7
23,"C[C@H]1Cn2c(nnc2-c2ccncc2)C(=O)N1Cc1cccc(C(F)(F)F)c1Cl [Example 47, (6S)-7-[2-Chloro-3-(trifluoromethyl)benzyl]-6-methyl-3-pyridin-4-yl-6,7-dihydro[1,2,4]triazolo[4,3-a]pyrazin-8(5H)-one]",-1.3
24,"Cc1ncccc1-c1nnc2n1C[C@H](C)N(Cc1cccc(C(F)(F)F)c1Cl)C2=O [Example 48, (6S)-7-[2-Chloro-3-(trifluoromethyl)benzyl]-6-methyl-3-(2-methylpyridin-3-yl)-6,7-dihydro[1,2,4]triazolo[4,3-a]pyrazin-8(5H)-one]",0
25,"C[C@H]1Cn2c(nnc2C2CCC2)C(=O)N1Cc1cccc(C(F)(F)F)c1Cl [Example 49, (6S)-7-[2-Chloro-3-(trifluoromethyl)benzyl]-3-cyclobutyl-6-methyl-6,7-dihydro[1,2,4]triazolo[4,3-a]pyrazin-8(5H)-one]",-3.1
26,"C[C@H]1Cn2c(nnc2C2CC2)C(=O)N1Cc1cccc(C(F)(F)F)c1Cl [Example 50, (6S)-7-[2-Chloro-3-(trifluoromethyl)benzyl]-3-cyclopropyl-6-methyl-6,7-dihydro[1,2,4]triazolo[4,3-a]pyrazin-8(5H)-one]",8.7
27,"C[C@H]1Cn2c(nnc2C2CCCCC2)C(=O)N1Cc1cccc(C(F)(F)F)c1Cl [Example 51, (6S)-7-[2-Chloro-3-(trifluoromethyl)benzyl]-3-cyclohexyl-6-methyl-6,7-dihydro[1,2,4]triazolo[4,3-a]pyrazin-8(5H)-one]",22.4
28,"C[C@H]1Cn2c(nnc2-c2cncc(Cl)c2)C(=O)N1Cc1cccc(C(F)(F)F)c1Cl [Example 52, (6S)-3-(5-Chloropyridin-3-yl)-7-[2-chloro-3-(trifluoromethyl)benzyl]-6-methyl-6,7-dihydro[1,2,4]triazolo[4,3-a]pyrazin-8(5H)-one]",13.8

# Source: patent US10053463B2 (Janssen Pharmaceutica NV, priority 2013, dated 2018)
